Here are results for 19 molecules from patent US12304912B2, “Fused bicyclic RAF inhibitors and methods for use thereof” (Jazz Pharmaceuticals Ireland Limited, priority 2020, dated 2025).

Counter-ions that a name gives are not always drawn. Like-named read-outs stand apart in the source and are kept apart here.

Data set [1] relates to constitutive ERK phosphorylation in WiDr cells. The data set is described as follows: WiDr AlphaLISA SureFire pERK1/2 cellular assay. The data set is classed as cell-based, human. The conditions noted are these: WiDr cells, 2 hr; for IC50: Homo sapiens, read-out: pERK WiDr (2 hr) Abs pIC50 (converted). How it is done:
(§1) The human HCT-116 colorectal carcinoma cell line (ATCC CCL-247) endogenously expresses the KRAS^G13D mutation, which leads to constitutive activation of the MAP kinase pathway and phosphorylation of ERK. […] Assay read outs took place 2 or 24 hours after dosing with compounds. On the first day, HCT-116 cells were harvested, resuspended in growth medium (McCoys5A with Glutamax (Life Technologies 36600021) and 10% heat-inactivated fetal bovine serum (Sigma F9665)), and counted. Cells were plated in 100 μl per well in each well of a 96-well culture dish (Sigma CLS3598) to a final density of 30,000 (2 hr read) or 15,000 (24 hr read) cells per well and incubated over night at 37° C. and 5% CO2. On day 2, the growth medium was exchanged for dosing medium (McCoys5A with Glutamax (Life Technologies 36600021) and 1% heat-inactivated fetal bovine serum (Sigma F9665)) and the cells were dosed with compounds to produce a 10-point dose response, where the top concentration was 1 μM and subsequent concentrations were at 1/3 log dilution intervals. A matched DMSO control was included. The cells were subsequently incubated for either 2 or 24 hours at 37° C. and 5% CO2. After incubation, media was removed and the cells were incubated with lysis buffer containing phosphatase inhibitors for 15 minutes at room temperature. Cell lysates were transferred to a 12 area 96 well white Optiplate™ (Perkin Elmer 6005569) and incubated with anti-mouse IgG acceptor beads, a biotinylated anti-ERK1/2 rabbit antibody recognizing both phosphorylated and non-phosphorylated ERK1/2, a mouse antibody targeted to the Thr202/Tyr204 epitope and recognizing phosphorylated ERK proteins only, and streptavidin-coated donor beads. The biotinylated antibody binds to the streptavidin-coated donor beads and the phopsho-ERK1/2 antibody binds to the acceptor beads. Plates were read on an EnVision reader (Perkin Elmer) and excitation of the beads at 680 nm with a laser induced the release of singlet oxygen molecules from the donor beads that trigger energy transfer to the acceptor beads in close proximity, producing a signal that can be measured at 570 nm. Both antibodies bound to phosphorylated ERK proteins, bringing the donor and acceptor beads into close proximity. All data were analyzed using the Dotmatics or GraphPad Prism software packages. Inhibition of ERK phosphorylation was assessed by determination of the absolute IC50 value, which is defined as the concentration of compound required to decrease the level of phosphorylated ERK proteins by 50% when compared to DMSO control.
WiDr AlphaLISA SureFire pERK1/2 Cellular Assay
The human WiDr colorectal adenocarcinoma cell line (ATCC CCL-218) endogenously expresses the BRAF^V600E mutation, which leads to constitutive activation of the MAP kinase pathway and phosphorylation of ERK. […] The main procedure is essentially the same as for HCT-116 cells (above), with the following adjustments to the growth medium (Eagle's Minimum Essential Medium (Sigma M2279) with 1× Glutamax (Life Technologies 35050038), 1× Sodium-Pyruvate (Sigma S8636), and 10% heat-inactivated fetal bovine serum (Sigma F9665)), the dosing medium (Eagle's Minimum Essential Medium (Sigma M2279) with 1× Glutamax (Life Technologies 35050038), 1× Sodium-Pyruvate (Sigma S8636), and 1% heat-inactivated fetal bovine serum (Sigma F9665)), and the seeding densities (2 hr: 50,000 cells per well; 24 hr: 35,000 cells per well). Moreover, the compounds were dosed in 1/2 log dilution intervals with the top concentration of 10 μM.
Background: Alpha assays give light when donor and acceptor beads are brought close together.

A short description of data set [2]: Microsomal stability assay, mouse liver microsomes (MLM). The class given is in vitro ADME. Conditions: 0.5 mg/mL protein, 1 μM substrate. An outline of the steps: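 Half-life and CLint come from the ln(% remaining)–time slope, with remaining compound quantified by LC-MS/MS after ice-cold solvent quench of timed samples. Incubations used 1 μM test compound and 0.5 mg·mL^−1 human or mouse liver microsomal protein at 37° C.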
In general terms: Liver microsomes are a subcellular fraction often used to study metabolism.

Data set [3] deals with constitutive ERK phosphorylation in HCT-116 cells. The data set is described as follows: HCT-116 AlphaLISA SureFire pERK1/2 cellular assay. The data set is classed as cell-based, human. The conditions noted are these: HCT116 cells, 2 hr; for IC50: Homo sapiens, HCT-116, read-out: pERK HCT116 (2 hr) Abs pIC50 (converted). How it is done:
as §1, with “HCT-116” for “The human HCT-116”, “AlphaLISA SureFire pERK1/2 Cellular Assay […]” for “colorectal carcinoma cell line (ATCC CCL-247) endogenously expresses the KRAS^G13D mutation, which leads to constitutive activation of the MAP kinase pathway and phosphorylation of ERK.”, “Plates were read on an EnVision reader (Perkin Elmer) and excitation of the beads at 680 nm with a laser induced the release of singlet oxygen molecules from the donor beads that trigger energy transfer to the acceptor beads in close proximity, producing a signal that can be measured at 570 nm.” left out

One may read the microsomal CLint as the rate of metabolic loss divided by the concentration. For the molecule `O=C1CCc2c(Oc3ccc4c(c3)CC(c3nc5cc(C(F)(F)F)ncc5[nH]3)CO4)ccnc2N1` (racemic) [Compound 32], the IC50 is 204 nM in data set [1] (absolute IC50) and 229 nM in data set [3] (absolute IC50). Further, in data set [2], the microsomal CLint at 1 μM is 8.3 µL/min/mg.
As for `O=C(Nc1cc(Oc2ccc3c(c2)CC(c2nc(-c4ccccc4)c[nH]2)CO3)ccn1)C1CC1` (racemic) [Compound 136], the IC50 is 66.1 nM in data set [1] (Abs) and 27.5 nM in data set [3] (Abs). Further, in data set [2] (37° C.), the “MLM (CLint)” value amounted to 277 µL/min/mg.
As to `O=C1CCc2c(Oc3ccc4c(c3)CC(c3nc(-c5ccnc(C(F)(F)F)c5)c[nH]3)CO4)ccnc2N1` (stereo not drawn) [Compound 8, 5-[3-[4-[2-(trifluoromethyl)-4-pyridyl]-1H-imidazol-2-yl]chroman-6-yl]oxy-3,4-dihydro-1H-1,8-naphthyridin-2-one], the values for the IC50 in data set [1] (absolute IC50) and in data set [3] (absolute IC50) were 178 nM and 174 nM, respectively. Further, the “pERK WiDr (2 hr) Abs pIC50” value in data set [1] (Abs) worked out at 6.75. The intrinsic clearance (microsomal CLint) at 1 μM in data set [2] came out at 13.9 µL/min/mg. The “pERK HCT116 (2 hr) Abs pIC50” value in data set [3] (Abs) is on record as 6.76.
Regarding `O=C1CCc2c(Oc3ccc4c(c3)CC(c3nc(-c5cccc(C(F)(F)F)c5)c[nH]3)CO4)ccnc2N1` (stereo not drawn) [Compound 12, 5-[3-[4-[3-(trifluoromethyl)phenyl]-1H-imidazol-2-yl]chroman-6-yl]oxy-3,4-dihydro-1H-1,8-naphthyridin-2-one], the IC50 in data set [1] (absolute IC50) is 123 nM; in data set [3] (absolute IC50) it was 257 nM. Besides, the microsomal CLint at 1 μM in data set [2] worked out at 15.7 µL/min/mg.
For `COc1cc(-c2c[nH]c(C3COc4ccc(Oc5ccnc6c5CCC(=O)N6)cc4C3)n2)ccn1` (stereo not drawn) [Compound 19, 5-[3-[4-(2-methoxy-4-pyridyl)-1H-imidazol-2-yl]chroman-6-yl]oxy-3,4-dihydro-1H-1,8-naphthyridin-2-one] the same measures were 1100 nM, 316 nM and 23 µL/min/mg.
For the molecule `O=C1CCc2c(Oc3ccc4c(c3)CC(c3nc5cc(C(F)(F)F)ccc5[nH]3)CO4)ccnc2N1` (stereo not drawn) [Compound 22, 5-[3-[6-(trifluoromethyl)-1H-benzimidazol-2-yl]chroman-6-yl]oxy-3,4-dihydro-1H-1,8-naphthyridin-2-one], the IC50 was 120 nM in data set [1] (absolute IC50) and 141 nM in data set [3] (absolute IC50). The microsomal CLint at 1 μM in data set [2] came to 25.1 µL/min/mg.
For `O=C1CCc2c(Oc3ccc4c(c3)CC(c3nc5cc(F)c(F)cc5[nH]3)CO4)ccnc2N1` (stereo not drawn) [Compound 23] the same measures were 229 nM, 316 nM and 30.5 µL/min/mg.
The corresponding values for `N#Cc1ccc2[nH]c(C3COc4ccc(Oc5ccnc6c5CCC(=O)N6)cc4C3)nc2c1` (stereo not drawn) [Compound 24] are 501 nM, 407 nM and 41.6 µL/min/mg.
For `O=C1CCc2c(Oc3ccc4c(c3)CC(c3nc5cc(Cl)ccc5[nH]3)CO4)ccnc2N1` (stereo not drawn) [Compound 25] the same measures were 129 nM, 85.1 nM and 48.5 µL/min/mg.
As to `CN(C)c1ccc2[nH]c(C3COc4ccc(Oc5ccnc6c5CCC(=O)N6)cc4C3)nc2c1` (stereo not drawn) [Compound 26], the IC50 in data set [1] (absolute IC50) is 302 nM; in data set [3] (absolute IC50), 417 nM. The microsomal CLint at 1 μM in data set [2] came out at 89.3 µL/min/mg.
The corresponding values for `Cc1cc2nc(C3COc4ccc(Oc5ccnc6c5CCC(=O)N6)cc4C3)[nH]c2cc1C` (stereo not drawn) [Compound 29] are 107 nM, 132 nM and 77.6 µL/min/mg.
For `O=C1CCc2c(Oc3ccc4c(c3)CN(c3nc(-c5ccccc5)n[nH]3)CC4)ccnc2N1` [Compound 44, 5-[[2-(3-phenyl-1H-1,2,4-triazol-5-yl)-3,4-dihydro-1H-isoquinolin-7-yl]oxy]-3,4-dihydro-1H-1,8-naphthyridin-2-one hydrochloride] the same measures were 355 nM, 537 nM and 11 µL/min/mg.
Regarding `CC(C)(C)CCc1c[nH]c(C2COc3ccc(Oc4ccnc5c4CCC(=O)N5)cc3C2)n1` (stereo not drawn) [Compound 115, 5-[3-[4-(3,3-dimethylbutyl)-1H-imidazol-2-yl]chroman-6-yl]oxy-3,4-dihydro-1H-1,8-naphthyridin-2-one], the IC50 in data set [1] (Abs) is 8.13 nM; in data set [3] (Abs), 45.7 nM.
`CC(C)CCc1c[nH]c(C2COc3ccc(Oc4ccnc5c4CCC(=O)N5)cc3C2)n1` (stereo not drawn) [Compound 116]: the values for the IC50 in data set [1] (Abs) and in data set [3] (Abs) were 39.8 nM and 67.6 nM, respectively.
Turning to `Cn1nc(C2CC2)cc1-c1c[nH]c(C2COc3ccc(Oc4ccnc5c4CCC(=O)N5)cc3C2)n1` (stereo not drawn) [Compound 125, 5-[3-[4-(5-cyclopropyl-2-methyl-pyrazol-3-yl)-1H-imidazol-2-yl]chroman-6-yl]oxy-3,4-dihydro-1H-1,8-naphthyridin-2-one], the IC50 in data set [1] (Abs) was 977 nM; in data set [3] (Abs), 355 nM.
For the molecule `O=C1CCc2c(Oc3ccc4c(c3)CC(c3nc(-c5ccc(C(F)(F)F)nc5)c[nH]3)CO4)ccnc2N1` (stereo not drawn) [Compound 127, 5-[3-[4-[6-(trifluoromethyl)-3-pyridyl]-1H-imidazol-2-yl]chroman-6-yl]oxy-3,4-dihydro-1H-1,8-naphthyridin-2-one], in data set [2] (37° C.), the intrinsic clearance (microsomal CLint) at 1 μM came to 13.4 µL/min/mg. Moreover, the IC50 in data set [3] (Abs) was 417 nM.
As to `O=C1CCc2c(Oc3ccc4c(c3)CC(c3nc(-c5cccnc5C(F)(F)F)c[nH]3)CO4)ccnc2N1` (stereo not drawn) [Compound 128, 5-[3-[4-[2-(trifluoromethyl)-3-pyridyl]-1H-imidazol-2-yl]chroman-6-yl]oxy-3,4-dihydro-1H-1,8-naphthyridin-2-one], the IC50 in data set [3] (Abs) is 389 nM.
For `O=C(Nc1cc(Oc2ccc3c(c2)CC(c2nc(-c4ccccc4)c[nH]2)CO3)ccn1)C1(F)CC1` (stereo not drawn) [Compound 138], the “MLM (CLint)” value in data set [2] (37° C.) is 277 µL/min/mg. In addition, in data set [3] (Abs), the IC50 is 275 nM.
The corresponding values for `O=C(Nc1cc(Oc2ccc3c(c2)CC(c2nc(-c4ccccc4)c[nH]2)CO3)ccn1)C1CC(F)(F)C1` (stereo not drawn) [Compound 139] are 277 µL/min/mg and 200 nM.
